Values joined by “and” are separate entries in the source; they are usually repeats but may differ in a detail not shown here. Equal values may be shown once. Results filed as inconclusive are left out.
Tested on: nude mice, HT29 intrarenal xenograft, tumor weight T/C
Test: NCI In Vivo Anticancer Drug Screen. Data for tumor model HT29;CX-1 Human Adenocarcinoma (MER+) (intrarenal inoculation) in NU/NU Swiss (nude) mice
Conditions: endpoint: mean tumor weight change, higher = larger tumour
Protocol: The antitumor activity of compounds was measured in mice bearing transplantable tumors. Survival or tumor size were measured and the results are expressed as the measurement made in the treated group (T) divided by the measurement made in the vehicle treated control group (C). The tumor model used in this assay is HT29;CX-1 Human Adenocarcinoma (MER+) (intrarenal inoculation) in NU/NU Swiss (nude) mice

[1] = dose: 450.0 mg/kg/injection, schedule: Q04DX004 (sc), vehicle: saline with Tween-80
[2] = dose: 900.0 mg/kg/injection, schedule: Q04DX004 (sc), vehicle: saline with Tween-80
[3] = dose: 1800.0 mg/kg/injection, schedule: Q04DX004 (sc), vehicle: saline with Tween-80
[4] = dose: 75.0 mg/kg/injection, schedule: Q04DX004 (sc), vehicle: Klucel (hydroxypropylcellulose) (HPC)
[5] = dose: 150.0 mg/kg/injection, schedule: Q04DX004 (sc), vehicle: Klucel (hydroxypropylcellulose) (HPC)
[6] = dose: 300.0 mg/kg/injection, schedule: Q04DX004 (sc), vehicle: Klucel (hydroxypropylcellulose) (HPC)
[7] = dose: 600.0 mg/kg/injection, schedule: Q04DX004 (sc), vehicle: Klucel (hydroxypropylcellulose) (HPC)
[8] = dose: 150.0 mg/kg/injection, schedule: Q04DX004 (sc), vehicle: saline with Tween-80
[9] = dose: 300.0 mg/kg/injection, schedule: Q04DX004 (sc), vehicle: saline with Tween-80
[10] = dose: 600.0 mg/kg/injection, schedule: Q04DX004 (sc), vehicle: saline with Tween-80
[11] = dose: 200.0 mg/kg/injection, schedule: Q01DX010 (sc), vehicle: saline
[12] = dose: 50.0 mg/kg/injection, schedule: Q04DX004 (sc), vehicle: saline with Tween-80
[13] = dose: 12.5 mg/kg/injection, schedule: Q04DX004 (sc), vehicle: saline with Tween-80
[14] = dose: 25.0 mg/kg/injection, schedule: Q04DX004 (sc), vehicle: saline with Tween-80

## N#CCCSC(=S)C1CCCC1=N (stereo not given)
dose: 225.0 mg/kg/injection, schedule: Q04DX004 (sc), vehicle: saline with Tween-80
  T/C: 104 % of control
[1]
  T/C: 106 % of control
[2]
  T/C: 114 % of control
[3]
  T/C: 103 % of control

## CC(C)(C)c1ccc(CN2CCN(C(c3ccccc3)c3ccc(Cl)cc3)CC2)cc1 (stereo not given)
[4]
  T/C: 78 % of control
[5]
  T/C: 74 % of control
[6]
  T/C: 88 % of control
[7]
  T/C: 93 % of control

## CC(=O)OCC1(C)NC(=O)c2ccccc2O1 (stereo not given)
[8]
  T/C: 78 % of control
[9]
  T/C: 79 % of control
[10]
  T/C: 100 % of control
dose: 1200.0 mg/kg/injection, schedule: Q04DX004 (sc), vehicle: saline with Tween-80
  T/C: 52 % of control

## O=C(O)C(CSC(c1ccccc1)(c1ccccc1)c1ccccc1)N=Cc1cccs1 (stereo not given)
dose: 200.0 mg/kg/injection, schedule: Q04DX004 (sc), vehicle: suspension in saline
  T/C: 12 % of control

## Cc1noc(N)c1N
dose: 100.0 mg/kg/injection, schedule: Q04DX004 (sc), vehicle: water
  T/C: 200 % of control
dose: 400.0 mg/kg/injection, schedule: Q04DX004 (sc), vehicle: water
  T/C: 98 % of control
dose: 800.0 mg/kg/injection, schedule: Q04DX004 (sc), vehicle: water
  T/C: 200 % of control

## CC(C)CC(=O)NC(C(=O)NC(C(=O)NC(CC(C)C)C(O)CC(=O)NC(C)C(=O)NC(CC(C)C)C(O)CC(=O)O)C(C)C)C(C)C (stereo not given)
[5]
  T/C: 102 % of control
[6]
  T/C: 87 % of control
[7]
  T/C: 69 % of control

## Cc1oc2c(C)c3oc(=O)cc(C)c3cc2c1CCl
[8]
  T/C: 107 % of control
[9]
  T/C: 71 % of control
[10]
  T/C: 114 % of control

## CC(=O)O[C@@H]1[C@@H](O)C2=C3[C@]4(C)[C@@H]1C(C)(C)C(=O)C[C@@H]4[C@]3(O)[C@H](OC(C)=O)[C@@]1(C[C@@H]1C)C2=O
dose: 12.5 mg/kg/injection, schedule: Q01DX010 (sc), vehicle: saline with Tween-80
  T/C: 77 % of control
dose: 25.0 mg/kg/injection, schedule: Q01DX010 (sc), vehicle: saline with Tween-80
  T/C: 122 % of control
dose: 50.0 mg/kg/injection, schedule: Q01DX010 (sc), vehicle: saline with Tween-80
  T/C: 26 % of control
dose: 100.0 mg/kg/injection, schedule: Q01DX010 (sc), vehicle: saline with Tween-80
  T/C: 68 % of control

## NCCc1ccc(O)c(O)c1
[11]
  T/C: 78 % of control

## CCN(C)N=Nc1ccc(C(N)=O)cc1
[4]
  T/C: 92 % of control
[5]
  T/C: 68 % of control

## O=C(O)CSc1nc(-c2ccccc2)c(-c2ccccc2)n1-c1ccccn1
dose: 250.0 mg/kg/injection, schedule: Q04DX004 (sc), vehicle: water
  T/C: 55 % of control

## CC(=O)c1c(O)c(C)c(O)c2c1OC1=CC(=O)C(C(C)=O)C(=O)C12C (stereo not given)
dose: 300.0 mg/kg/injection, schedule: Q04DX004 (sc), vehicle: sodium bicarbonate
  T/C: 104 % of control
dose: 600.0 mg/kg/injection, schedule: Q04DX004 (sc), vehicle: sodium bicarbonate
  T/C: 91 % of control
dose: 800.0 mg/kg/injection, schedule: Q01DX010 (sc), vehicle: sodium bicarbonate
  T/C: 3 % of control and 9 % of control

## Nc1ncnc2c1nnn2C1OC(CO)C(O)C1O (stereo not given)
[4]
  T/C: 41 % of control

## CC[C@@H](C)[C@@H]1NC(=O)C(NC(=O)C(CC(C)C)N(C)C(=O)C2CCCN2C(=O)C(C)O)C(C)OC(=O)C(Cc2ccc(OC)cc2)N(C)C(=O)C2CCCN2C(=O)C(CC(C)C)NC(=O)C(C)C(=O)C(C(C)C)OC(=O)C[C@H]1O (stereo not given in full)
dose: 225.0 micrograms/kg/injection, schedule: Q04DX004 (sc), vehicle: distilled water + alcohol
  T/C: 105 % of control
dose: 450.0 micrograms/kg/injection, schedule: Q04DX004 (sc), vehicle: distilled water + alcohol
  T/C: 106 % of control
dose: 900.0 micrograms/kg/injection, schedule: Q04DX004 (sc), vehicle: distilled water + alcohol
  T/C: 78 % of control
dose: 1800.0 micrograms/kg/injection, schedule: Q04DX004 (sc), vehicle: distilled water + alcohol
  T/C: 29 % of control

## CC(C)NC(=O)OCc1c(COC(=O)NC(C)C)c(-c2ccc(Cl)c(Cl)c2)n2c1CCC2
dose: 25.0 mg/kg/injection, schedule: Q01DX010 (sc), vehicle: distilled water + Tween-80
  T/C: 107 % of control
dose: 50.0 mg/kg/injection, schedule: Q01DX010 (sc), vehicle: distilled water + Tween-80
  T/C: 15 % of control
dose: 200.0 mg/kg/injection, schedule: Q01DX010 (sc), vehicle: distilled water + Tween-80
  T/C: 60 % of control and 78 % of control
dose: 800.0 mg/kg/injection, schedule: Q01DX010 (sc), vehicle: distilled water + Tween-80
  T/C: 44 % of control

## C=C1C(=O)OC2CC(C)C3C4OC4C(O)C3(C)C(O)C12 (stereo not given)
[12]
  T/C: 99 % of control
dose: 100.0 mg/kg/injection, schedule: Q04DX004 (sc), vehicle: saline with Tween-80
  T/C: 121 % of control
dose: 200.0 mg/kg/injection, schedule: Q04DX004 (sc), vehicle: saline with Tween-80
  T/C: 107 % of control

## O=C1C=C[C@H](O)[C@@]2(CO)O[C@@H]12
dose: 6.25 mg/kg/injection, schedule: Q04DX004 (sc), vehicle: saline with Tween-80
  T/C: 109 % of control
[13]
  T/C: 82 % of control

## CSc1ccc2c(c1)C(N1CCN(C)CC1)Cc1ccccc1S2 (stereo not given)
[13]
  T/C: 80 % of control
[14]
  T/C: 98 % of control
[12]
  T/C: 124 % of control

## Cc1ccc(NCCN(C)C)c2c(=O)c3cc(O)ccc3sc12
dose: 225.0 mg/kg/injection, schedule: Q04DX004 (sc), vehicle: Klucel (hydroxypropylcellulose) (HPC)
  T/C: 81 % of control
dose: 450.0 mg/kg/injection, schedule: Q04DX004 (sc), vehicle: Klucel (hydroxypropylcellulose) (HPC)
  T/C: 64 % of control
dose: 900.0 mg/kg/injection, schedule: Q04DX004 (sc), vehicle: Klucel (hydroxypropylcellulose) (HPC)
  T/C: 99 % of control
dose: 1800.0 mg/kg/injection, schedule: Q04DX004 (sc), vehicle: Klucel (hydroxypropylcellulose) (HPC)
  T/C: 68 % of control

## COc1ccc(CC2C(=O)NC(C)C(=O)N(C)C3Cc4ccc(cc4)Oc4cc(ccc4O)CC(C(=O)NC(C)C(=O)NC(C)C(=O)N2C)N(C)C3=O)cc1 (stereo not given)
dose: 1.0 mg/kg/injection, schedule: Q04DX004 (sc), vehicle: saline with Tween-80
  T/C: 59 % of control
dose: 2.0 mg/kg/injection, schedule: Q04DX004 (sc), vehicle: saline with Tween-80
  T/C: 64 % of control
dose: 4.0 mg/kg/injection, schedule: Q04DX004 (sc), vehicle: saline with Tween-80
  T/C: 70 % of control
dose: 8.0 mg/kg/injection, schedule: Q04DX004 (sc), vehicle: saline with Tween-80
  T/C: 56 % of control and 68 % of control
dose: 16.0 mg/kg/injection, schedule: Q04DX004 (sc), vehicle: saline with Tween-80
  T/C: 70 % of control

## Brc1ccc(C[N+]23CN4CN(CN(C4)C2)C3)cc1
[8]
  T/C: 69 % of control
[9]
  T/C: 101 % of control

## CN(C)C1C(=O)C(C(=O)NP(=O)(NCCCO)N(CCCl)CCCl)=C(O)C2(O)C(=O)C3=C(O)c4c(O)cccc4C(C)(O)C3CC12 (stereo not given)
dose: 75.0 mg/kg/injection, schedule: Q04DX004 (sc), vehicle: saline with Tween-80
  T/C: 89 % of control
[9]
  T/C: 7 % of control and 32 % of control
[10]
  T/C: -99 % of control

## CCOC(=O)Nc1cc2c(c(N)n1)N=C(c1ccccc1)CN2
[13]
  T/C: 90 % of control
[14]
  T/C: 104 % of control

## Cc1cc2nc3[nH]c4ccccc4c3nc2cc1C
dose: 100.0 mg/kg/injection, schedule: Q01DX010 (sc), vehicle: saline
  T/C: 46 % of control
[11]
  T/C: 98 % of control
dose: 400.0 mg/kg/injection, schedule: Q01DX010 (sc), vehicle: saline
  T/C: 82 % of control
dose: 800.0 mg/kg/injection, schedule: Q01DX010 (sc), vehicle: saline
  T/C: 84 % of control

## Nc1ccc(Cl)cc1N
[1]
  T/C: 41 % of control
[2]
  T/C: 78 % of control
[3]
  T/C: 30 % of control

## CNC(=O)c1cccc2c(Nc3ccc(NS(C)(=O)=O)cc3OC)c3cccc(C)c3nc12
dose: 50.0 mg/kg/injection, schedule: Q04DX004 (sc), vehicle: other
  T/C: 72 % of control
dose: 100.0 mg/kg/injection, schedule: Q04DX004 (sc), vehicle: other
  T/C: 39 % of control
